The numbers were not newly measured in patent US20240189234A1, “SILICON PARTICLES FOR DRUG DELIVERY” (NACAMED AS, priority 2021, published 2024), which cites them from elsewhere.

The conditions of one data set: calculated log P values from Foye's Principles of Medicinal Chemistry.
Broadly, the log P is the decadic logarithm of the partition coefficient of the neutral form, usually between octanol and water. In the case of `COc1ccc([C@@H]2Sc3ccccc3N(CCN(C)C)C(=O)[C@@H]2OC(C)=O)cc1` [diltiazem], the “log P” value is recorded as 4.73.

Take `CCOC(=O)[C@H](CCc1ccccc1)N[C@@H](C)C(=O)N1CCC[C@H]1C(=O)O` [enalapril]: the “log P” value is given as 3.25.

Take `CN1CCN=C(c2ccccc2)c2cc(Cl)ccc21` [medazepam]: the “log P” value was 3.89.

For `Cc1cccc(Nc2ccccc2C(=O)O)c1C` [mefenamic acid], the “log P” value is recorded as 4.83.

`CN1CCCC(CN2c3ccccc3Sc3ccccc32)C1` (stereo not shown) [mepazine]: the “log P” value was 5.04.

For `CN1CCC(CN2c3ccccc3Sc3ccccc32)C1` (stereo not shown) [methdilazine], the lipophilicity (log P) was 4.64.

With `COc1ccc2c(c1)N(C[C@H](C)CN(C)C)c1ccccc1S2` [methotrimeprazine], the “log P” value was 4.94.

`Cc1ccccc1N1C(=O)c2cc(S(N)(=O)=O)c(Cl)cc2NC1C` (stereo not shown) [metolazone]: the lipophilicity (log P) is 3.16.

On to `Clc1ccc(COC(Cn2ccnc2)c2ccc(Cl)cc2Cl)c(Cl)c1` (stereo not shown) [miconazole], for which the log partition coefficient (log P) was 4.97.

In the case of `Cc1ncc2n1-c1ccc(Cl)cc1C(c1ccccc1F)=NC2` [midazolam], the “log P” value is given as 3.80.

Turning to `CCCCCCC(C)(C)c1cc(O)c2c(c1)OC(C)(C)C1CCC(=O)CC21` (stereo not shown) [nabilone], the “log P” value is given as 7.25.

On to `OC(CNCC(O)C1CCc2cc(F)ccc2O1)C1CCc2cc(F)ccc2O1` (stereo not shown) [nebivolol], for which the log partition coefficient (log P) is listed as 4.08.

Turning to `Cc1c(O)cccc1C(=O)N[C@@H](CSc1ccccc1)[C@H](O)CN1C[C@H]2CCCC[C@H]2C[C@H]1C(=O)NC(C)(C)C` [nelfinavir], the “log P” value was 7.28.

Regarding `CNCCC=C1c2ccccc2CCc2ccccc21` [nortriptyline], the log partition coefficient (log P) is on record as 3.97.

Take `CO[C@@H]1[C@@H](OC(N)=O)[C@@H](O)[C@H](Oc2ccc3c(O)c(NC(=O)c4ccc(O)c(CC=C(C)C)c4)c(=O)oc3c2C)OC1(C)C` [novobiocin]: the “log P” value is 3.74.

Turning to `Cc1ccccc1C(OCCN(C)C)c1ccccc1` (stereo not shown) [orphenadrine], the “log P” value is given as 3.33.

In the case of `CCN(CC)CCCC(C)Nc1cc(OC)cc2cccnc12` (stereo not shown) [pamaquine], the “log P” value is on record as 4.38.

For `CC(C)(C)NC[C@H](O)COc1ccccc1C1CCCC1` [penbutolol], the “log P” value was 4.02.

In the case of `CC(C)=CCN1CCC2(C)c3cc(O)ccc3CC1C2C` (stereo not shown) [pentazocine], the log partition coefficient (log P) is on record as 4.15.

Turning to `CCCN1C[C@H](CSC)C[C@@H]2c3cccc4[nH]cc(c34)C[C@H]21` [pergolide], the “log P” value is recorded as 3.90.

Consider `C1CCC(C(CC2CCCCN2)C2CCCCC2)CC1` (stereo not shown) [perhexilene], for which the log partition coefficient (log P) is 6.46.

For `OCCN1CCN(CCCN2c3ccccc3Sc3ccc(Cl)cc32)CC1` [perphenazine], the lipophilicity (log P) is reported as 3.94.

Take `c1ccc(C2(N3CCCCC3)CCCCC2)cc1` [phencyclidine]: the “log P” value is listed as 4.25.

Regarding `CN1CCC2=C(C1)C(c1ccccc1)c1ccccc12` (stereo not shown) [phenindamine], the “log P” value is 3.81.

For the compound `O=C1c2ccccc2C(=O)C1c1ccccc1` [phenindione], the log partition coefficient (log P) is 3.19.

On to `CC(COc1ccccc1)N(CCCl)Cc1ccccc1` (stereo not shown) [phenoxybenzamine], for which the lipophilicity (log P) is listed as 3.69.

Regarding `Cc1ccc(N(CC2=NCCN2)c2cccc(O)c2)cc1` [phentolamine], the “log P” value is 4.08.

With `CN(C)CCOc1ccccc1Cc1ccccc1` [phenyltoloxamine], the “log P” value is reported as 3.46.

`O=c1[nH]c2ccccc2n1C1CCN(CCCC(c2ccc(F)cc2)c2ccc(F)cc2)CC1` [pimozide]: the “log P” value is reported as 5.57.

Take `OC(c1ccccc1)(c1ccccc1)C1CCCCN1` (stereo not shown) [pipradrol]: the lipophilicity (log P) is given as 3.61.

As to `CC(C)(C)C(=O)OCOC(=O)[C@@H]1N2C(=O)[C@@H](NC(=O)[C@H](N)c3ccccc3)[C@H]2SC1(C)C` [pivampicillin], the “log P” value is on record as 3.88.

Regarding `CC(=O)Oc1cc2c(s1)CCN(C(C(=O)C1CC1)c1ccccc1F)C2` (stereo not shown) [prasugel], the “log P” value is given as 4.31.

Consider `O=C1CN=C(c2ccccc2)c2cc(Cl)ccc2N1CC1CC1` [prazepam], for which the “log P” value was 3.70.

`CN1CCN(CCCN2c3ccccc3Sc3ccc(Cl)cc32)CC1` [prochlorperazine]: the “log P” value is given as 4.65.

For `CN(C)CCCN1c2ccccc2Sc2ccccc21` [promazine], the log partition coefficient (log P) was 4.69.

Turning to `CC(CN1c2ccccc2Sc2ccccc21)N(C)C` (stereo not shown) [promethazine], the lipophilicity (log P) is reported as 4.89.

For `CCC(=O)O[C@](Cc1ccccc1)(c1ccccc1)[C@H](C)CN(C)C` [propoxyphene], the “log P” value was 4.10.

As for `c1ccc2c(c1)Sc1ccccc1N2CCN1CCCC1` [pyrathiazine], the lipophilicity (log P) is given as 4.15.

Turning to `Clc1ccc(C/C(=C\CN2CCCC2)c2ccccc2)cc1` [pyrrobutamine], the “log P” value is recorded as 4.57.

For `CCN(CC)CCCC(C)Nc1c2ccc(Cl)cc2nc2ccc(OC)cc12` (stereo not shown) [quinacrine], the “log P” value is reported as 5.59.

For `COC(=O)[C@H]1[C@H]2C[C@@H]3c4[nH]c5cc(OC)ccc5c4CCN3C[C@H]2C[C@@H](OC(=O)c2cc(OC)c(OC)c(OC)c2)[C@@H]1OC` [reserpine], the lipophilicity (log P) was 3.65.

As for `OCc1cc(C(O)CNCCCCCCOCCCCc2ccccc2)ccc1O` (stereo not shown) [salmeterol], the lipophilicity (log P) was 3.71.

Consider `O=C(Oc1ccccc1C(=O)O)c1ccccc1O` [salsalate], for which the “log P” value is 3.29.

Turning to `CN[C@H]1CC[C@@H](c2ccc(Cl)c(Cl)c2)c2ccccc21` [sertraline], the “log P” value was 5.08.

In the case of `O=C(CCCN1CCC2(CC1)C(=O)NCN2c1ccccc1)c1ccc(F)cc1` [spiperone], the “log P” value is listed as 3.25.

Regarding `O=C(O)c1cc(/N=N/c2ccc(S(=O)(=O)Nc3ccccn3)cc2)ccc1O` [sulfasalazine], the lipophilicity (log P) was 3.05.

Turning to `CCCCNc1ccc(C(=O)OCCN(C)C)cc1` [tetracaine], the lipophilicity (log P) was 3.75.

As for `CCCCCc1cc(O)c2c(c1)OC(C)(C)[C@@H]1CCC(C)=C[C@@H]21` [tetrahydrocannabinol], the “log P” value is 6.84.

Turning to `CC(=O)OCCN1CCN(CCCN2c3ccccc3Sc3ccc(Cl)cc32)CC1` [thiopropazate], the “log P” value is recorded as 4.76.

`CSc1ccc2c(c1)N(CCC1CCCCN1C)c1ccccc1S2` (stereo not shown) [thioridazine]: the lipophilicity (log P) is 5.90.

As for `Cc1ccsc1C(=CCCN1CCC[C@@H](C(=O)O)C1)c1sccc1C` [tiagabine], the “log P” value was 4.03.

Consider `O=C(O)COc1ccc(C(=O)c2cccs2)c(Cl)c1Cl` [ticrynfen], for which the “log P” value is 3.05.

As for `Cc1ccc(O)c([C@H](CCN(C(C)C)C(C)C)c2ccccc2)c1` [tolterodine], the lipophilicity (log P) is recorded as 5.23.

Consider `CN1CCN(CCCN2c3ccccc3Sc3ccc(C(F)(F)F)cc32)CC1` [trifluoperazine], for which the log partition coefficient (log P) is given as 4.62.

With `CN(C)CCCN1c2ccccc2Sc2ccc(C(F)(F)F)cc21` [triflupromazine], the “log P” value is listed as 5.16.

As for `CC(CN(C)C)CN1c2ccccc2Sc2ccccc21` (stereo not shown) [trimeprazine], the log partition coefficient (log P) was 5.04.

For the compound `CC(CN(C)C)CN1c2ccccc2CCc2ccccc21` (stereo not shown) [trimipramine], the log partition coefficient (log P) is given as 4.71.

For the compound `Cc1ccc(/C(=C\CN2CCCC2)c2ccccn2)cc1` [triprolidine], the lipophilicity (log P) is 3.25.

In the case of `CO[C@H]1C[C@H](O[C@H]2[C@H](C)[C@@H](O[C@@H]3O[C@H](C)C[C@H](N(C)C)[C@H]3OC(C)=O)[C@@H](C)C[C@@]3(CO3)C(=O)[C@H](C)[C@@H](OC(C)=O)[C@@H](C)[C@@H](C)OC(=O)[C@@H]2C)O[C@@H](C)[C@@H]1OC(C)=O` [troleandomycin], the lipophilicity (log P) was 3.46.

Turning to `CC[C@]1(O)C[C@@H]2CN(CCc3c([nH]c4ccccc34)[C@@](C(=O)OC)(c3cc4c(cc3OC)N(C)[C@H]3[C@@](O)(C(=O)OC)[C@H](OC(C)=O)[C@]5(CC)C=CCN6CC[C@]43[C@@H]65)C2)C1` [vinblastine], the “log P” value is reported as 5.92.

Consider `CC[C@]1(O)C[C@H]2CN(CCc3c([nH]c4ccccc34)[C@@](C(=O)OC)(c3cc4c(cc3OC)N(C=O)[C@H]3[C@@](O)(C(=O)OC)[C@H](OC(C)=O)[C@]5(CC)C=CCN6CC[C@]43[C@@H]65)C2)C1` [vincristine], for which the “log P” value was 5.75.

As to `CC[C@]1(O)C[C@@H]2CN(CCc3c([nH]c4ccccc34)[C@@](C(=O)OC)(c3cc4c(cc3OC)N(C)[C@H]3[C@@](O)(C(N)=O)[C@H](O)[C@]5(CC)C=CCN6CC[C@]43[C@@H]65)C2)C1` [vindesine], the log partition coefficient (log P) is listed as 4.94.

`CC(=O)CC(c1ccccc1)c1c(O)c2ccccc2oc1=O` (stereo not shown) [warfarin]: the “log P” value is given as 3.13.

Consider `CN(C)C/C=C(/c1ccc(Br)cc1)c1cccnc1` [zimeldine], for which the lipophilicity (log P) is 3.07.

Turning to iodoquinol, the log partition coefficient (log P) was 4.10.

For a further data set the following is noted: oral.
In the case of `C[C@@H]1[C@H](O)[C@@H](C)/C=C/C=C/C=C/C=C/C=C/C=C/C=C/[C@H](O[C@@H]2O[C@H](C)[C@@H](O)[C@H](N)[C@@H]2O)C[C@@H]2O[C@](O)(C[C@@H](O)C[C@@H](O)[C@H](O)CC[C@@H](O)C[C@@H](O)CC(=O)O[C@H]1C)C[C@H](O)[C@H]2C(=O)O` [amphotericin B], the absolute bioavailability entry is reported as “very low”.

For `CC[C@H]1OC(=O)[C@H](C)[C@@H](O[C@H]2C[C@@](C)(OC)[C@@H](O)[C@H](C)O2)[C@H](C)[C@@H](O[C@@H]2O[C@H](C)C[C@H](N(C)C)[C@H]2O)[C@](C)(O)C[C@@H](C)CN(C)[C@H](C)[C@@H](O)[C@]1(C)O` [azithromycin], the absolute bioavailability is 40%.

In the case of `CCOc1nc2cccc(C(=O)O)c2n1Cc1ccc(-c2ccccc2-c2nnn[nH]2)cc1` [candesartan], the absolute bioavailability is 40%.

On to `COc1ccc([C@@H]2Sc3ccccc3N(CCN(C)C)C(=O)[C@@H]2OC(C)=O)cc1` [diltiazem], for which the absolute bioavailability is listed as 40%.

`CCOC(=O)[C@H](CCc1ccccc1)N[C@@H](C)C(=O)N1CCC[C@H]1C(=O)O` [enalapril]: the absolute bioavailability was 60%.

For `CC1(C)S[C@@H]2[C@H](NC(=O)COc3ccccc3)C(=O)N2[C@H]1C(=O)O` [phenoxymethylpenicillin], the absolute bioavailability is reported as 50%.

As to `CC(C)NCC(O)COc1cccc2ccccc12` (stereo not shown) [propranolol], the absolute bioavailability is listed as 26%.

Consider `CCCCC(=O)N(Cc1ccc(-c2ccccc2-c2nnn[nH]2)cc1)[C@H](C(=O)O)C(C)C` [valsartan], for which the absolute bioavailability is reported as 25%.
